The text below walks through data of patent publication US9457044B2, “Methods and compositions for wound healing” (CoDa Therapeutics, Inc., priority 2006, dated 2016).

Series [1] relates to fibroblast like cells. Put plainly: Fibroblast-like cell count at wound margin (rhodamine phalloidin/DAPI). The class given is in vivo, mice. Conditions: 2 day wounds; P<0.01. The procedure:
Male, 8 week old, ICR mice were used in the following experiments. All the mice were kept under specific pathogen-free conditions in an environmentally controlled clean room at University College London and all the experiments were carried out under UK Home Office regulations. Mice were anaesthetized by halothane inhalation. Four full-thickness excisional wounds of 6 mm diameter were made on the shaved back on either side of the dorsal midline with a 6 mm biopsy punch (Kai Industries). To each pair of wounds a single topical application of 50 μl of 1 μM Cx43 as ODN (SEQ. ID No. 2) (Sigma-Genosys) in 30% Pluronic F-127 gel (Sigma-Aldrich), chilled on ice, was made to one wound, and an identical application of 1 μM sense control sODNs was made to the other. […] R. and Becker, D. L. (2003). Targeting connexin 43 expression accelerates the rate of wound repair. Curr Biol 13, 1697-703). Each wound region was digitally photographed at the indicated time intervals, and the areas of the wounds were calculated. All wound areas were expressed as percentages of the initial wound areas. […]
A treatment-blinded observer counted MPO-positive neutrophils and F4/80-positive macrophages in the wound bed (defined as the area surrounded by unwounded skin, fascia, regenerated epidermis, and eschar) in 3 random high-power fields of 0.332 mm^2. […]

Series [2] has as its system myofibroblasts. Put plainly: Anti-α smooth muscle actin staining of myofibroblasts in granulation tissue. It is filed as in vivo, mice. The procedure:
(§1) Male, 8 week old, ICR mice were used in the following experiments. All the mice were kept under specific pathogen-free conditions in an environmentally controlled clean room at University College London and all the experiments were carried out under UK Home Office regulations. Mice were anaesthetized by halothane inhalation. Four full-thickness excisional wounds of 6 mm diameter were made on the shaved back on either side of the dorsal midline with a 6 mm biopsy punch (Kai Industries). To each pair of wounds a single topical application of 50 μl of 1 μM Cx43 as ODN (SEQ. ID No. 2) (Sigma-Genosys) in 30% Pluronic F-127 gel (Sigma-Aldrich), chilled on ice, was made to one wound, and an identical application of 1 μM sense control sODNs was made to the other. […] R. and Becker, D. L. (2003). Targeting connexin 43 expression accelerates the rate of wound repair. Curr Biol 13, 1697-703). Each wound region was digitally photographed at the indicated time intervals, and the areas of the wounds were calculated. All wound areas were expressed as percentages of the initial wound areas. In some series of experiments, wounds and their surrounding area, including the scab and epithelial margins, were harvested with an 8 mm biopsy punch (Kai Industries) at the indicated time intervals after mice were killed with an overdose of chloroform. A minimum of eight mice were used for each time point examined.
Immunostaining for connexin 43, blood vessels or a smooth muscle actin was carried out on cryostat sections of wounds. Sections were fixed in acetone at 4° C. for 5 minutes prior to blocking for 45 minutes. Incubation in primary antibody was for one hour at the following dilutions: rabbit anti-Cx43 (Sigma) 1:3,000; isoLectin B_FITC 1:2000; von Willebrand Factor (rabbit Dako) 1:400; anti-α smooth muscle actin (Sigma) 1:400 at room temperature. […]
A treatment-blinded observer counted MPO-positive neutrophils and F4/80-positive macrophages in the wound bed (defined as the area surrounded by unwounded skin, fascia, regenerated epidermis, and eschar) in 3 random high-power fields of 0.332 mm^2. BrdU-positive cells in the wound margin and the nascent epidermis regions of each immunohistochemically stained section were counted as described previously and expressed per […] of epidermis (Mori, R., Kondo, T., Nishie, T., Ohshima, T. and Asano, M. (2004). Impairment of skin wound healing in beta-1,4-galactosyltransferase-deficient mice with reduced leukocyte recruitment. Am J Pathol 164, 1303-14). Number of fibroblast like cells (phalloidin-positive cells with spindle-shape body) at the wound margin were counted in high-power fields also (each field was 0.332 mm^2). […] Images were made binary at a standard threshold and positive pixels were counted using Image J (NIH Image).

In series [3] the test system is blood vessels. Put plainly: Angiogenesis at wound sites (von Willebrand factor, CD31, isolectinB staining). It is filed as in vivo, mice. As to the method: as §1
Wound tissues were fixed in 4% formaldehyde buffered with PBS, and embedded in paraffin. Sections ([…] thick) were subjected to hematoxylin and eosin staining or immunostaining. Measurement of granulation tissue area in H&E was performed using Improvision Openlab™ 4.0.2 software (Improvision). For immunohistochemistry, deparaffinized sections were treated with endogenous peroxidase blocking reagent (Dako Cytomation A/S) and proteinase K (Dako Cytomation A/S) for 20 minutes and 6 minutes at room temperature, respectively. They were then incubated with rabbit antimyeloperoxidase (MPO) polyclonal antibody (NeoMarkers) diluted 1:200, rat anti-mouse F4/80 monoclonal antibody (mAb) (Abcom Limited) diluted 1:400 or rat antimouse CD31 (platelet endothelial cell adhesion molecule 1, PECAM-1) mAb (PharMingen) or rabbit anti-mouse TGF-β1 polyclonal antibody (Santa Cruz Biotechnology, Inc) both diluted 1:200 overnight at 4° C. after blocking with 15% skimmed milk for 1 hour at room temperature. In addition, some sections were reacted with phalloidin-tetramethylrhodamine B isothiocyanate (Sigma-Aldrich) diluted 1:500 for 1 hour at room temperature. The antibodies were appropriately diluted in Antibody Diluent with Background Reducing Components (Dako Cytomation A/S). The sections reacted with anti-MPO antibody and anti TGF-β1 antibody were stained with EnVision+™ (Dako Cytomation A/S) to enhance the signal, according to the manufacturer's instructions. The sections that had been reacted with anti-F4/80 and anti-CD31 antibodies were incubated with biotinylated rabbit anti-rat immunoglobulin (Dako Cytomation A/S) diluted 1:200 for 1 hour at 37° C. The signal was then enhanced using the Catalyzed Signal Amplification System® (Dako Cytomation A/S) according to the manufacturer's instructions. Thereafter, counterstaining was performed with methyl green (Dako Cytomation A/S) followed by MPO, TGF-β1, F4/80, and CD31 staining or 4′,6-diamidino-2-phenylindole (DAPI) followed by phalloidin staining. […]

Series [4] deals with IGF-7. Put plainly: Growth factor/cytokine antibody array of chimera: IGF-7. The class given is cell-based, human. Conditions: after two weeks in culture. As to the method: Cell denuded pig stroma chimeras were cultured for two weeks and then assessed using a growth factor/cytokine antibody array (measures protein levels of 120 different growth factors/cytokines.
After two weeks in culture the chimeras were cut in half: one half for histological analysis, and the other for growth factor and cytokine array analysis. For growth factor and cytokine analysis the central stromal region (with fully recovered human cell epithelium) and partially repopulated stroma (human keratocytes) was removed and homogenised separately from the human limbal rim which contains stem cell populations. The homogenates were run on a growth factor/cytokine array (FIG. 15) and analysis of growth factor levels performed using densitometry analysis of the array membranes.

“GTAATTGCGGCAGGAGGAATTGTTTCTGTC (antisense GTAATTGCGGCAGGAGGAATTGTTTCTGTC; in Pluronic F-127 gel, further chemistry not given here) [Cx43 asODN]”: the “number of elongated fibroblast like cells at the wound margin (mean per field)” value in series [1] turned out to be 99.2. In series [2] (10 days after wounding, P=0.000002 versus control), the “SMA staining at the edges of the granulation tissue” value is listed as “most of the staining for SMA had gone”. In series [2] (day 5, no staining in control wounds), the SMA staining result is on record as “could be detected at the edges of the granulation tissue”. In addition, the “SMA staining at the edges of the granulation tissue, quantified” value in series [2] (day 7, P=0.004 versus control) is recorded as “significantly higher”. Moreover, in series [2] (mouse, in vivo), the “advance over controls in maturation of granulation tissue” value lay within 2 to 3 days. Also, the “blood vessel staining in granulation tissue” value in series [3] (5 days, none in control wounds) is recorded as “staining was seen in the edges of the granulation tissue of all”. Also, the “quantified blood vessel staining, treated versus controls” value in series [3] (7 days P=0.0019, 10 days P=0.015) is listed as “significantly more staining in controls”. In series [3] (14 days), the “size of blood vessels and extent of staining, treated versus control” value was “very similar”. Also, the “wounds with fine blood vessels throughout the entire granulation tissue” value in series [3] (day 7) is given as “five out of six”. Also, in series [3] (mouse, in vivo), the “enhancement of the rate of wound maturation” value was 2 to 3 days. Further, in series [4], the “level of IGF-7 in chimeric stroma compared with untreated controls” value is “very high levels”.
